These results are taken from patent publication US20250309306A1, “Cationic Viologen Derivatives and Use Thereof in Redox Flow Batteries” (priority 2024, published 2025).

Some results are limits rather than exact numbers.

As a reminder, the solubility is the dissolved amount per volume that the medium holds. A higher solubility goes with a readily soluble substance.

Holding throughout (type): physicochemical
Data set [1] can be described thus: Cyclic voltammetry, repeated charging-discharging cycles (integrated area over 100 scans).
The nature of data set [2]: Water solubility by quantitative NMR. Conditions: for solubility: water (D2O), water, thermodynamic from solid. Here is the method: The compound to be tested was dissolved in 100 μl D2O until saturation was reached. Any undissolved compound was filtered off and the filtrate was combined with a standard solution containing a known amount of a calibration compound as an internal reference. The sample is investigated using 1H NMR. […] The solubility of the compound to be tested was then calculated from a relative concentration determination based on the known calibration compound concentration.

Data set [3] can be described thus: Pulse voltammetry (SWV/DPV), three-electrode cell: redox potential of first reduction.
The next data set in a line: Reaction rate (k°).
Data set [4] is described as follows: Diffusion coefficient by Levic plot, rotating disk electrode. Here is the method: The diffusion coefficient of molecules was measured using Levic plot, obtained using a rotating disk electrode (RDE) setup according to standard procedures.
[5] abbreviates: Table 2, Ag/AgCl reference, +0.200 V offset applied, glassy carbon working electrode.
Setting [6] is: Table 3, comparison of transquat, diquat and annulated diquat.

`[Cl-].[Cl-].c1cc2c3[n+](c1)CCc1ccc[n+](c1-3)CC2`: the “Capacity over 100 cycles” value in data set [1] (Table 2) and in data set [1] (Table 3) was 0.98 in each case. Besides, in data set [2] (Table 3, at 20° C.), the “Solubility in water (M, at 20° C.)” value was >1500 mM. In data set [2] (Table 2, at 20°C), the solubility is > 1500 mM. Besides, the “Redox Potential (V vs SHE)” value in data set [3] (setting [5]) and in data set [3] (setting [6]) was −0.48 V vs SHE in each case. Moreover, the “Reaction Rate (k°, in cm/s)” value in the data set “Reaction rate (k°)” (Table 2) and in the data set “Reaction rate (k°)” (Table 3) was 0.00764 cm/s each time. For the same molecule, the “Diffusion coefficient (D, in cm^2s^−1)” value in data set [4] (Table 2) and in data set [4] (Table 3) was 1.62 × 10^−5 cm^2s^−1 each time.
With `Cc1cc2c3[n+](c1)CCc1cc(C)c[n+](c1-3)CC2.[Cl-].[Cl-]`, the “Capacity over 100 cycles” value in data set [1] (Table 2) came out at 0.95. Also, the solubility in data set [2] (Table 2, at 20°C) was ~1000 mM. Further, the “Redox Potential (V vs SHE)” value in data set [3] (setting [5]) is −0.59 V vs SHE. For the same molecule, the “Reaction Rate (k°, in cm/s)” value in the data set “Reaction rate (k°)” (Table 2) is 0.016 cm/s. Moreover, the “Diffusion coefficient (D, in cm^2s^−1)” value in data set [4] (Table 2) is given as 6.45 × 10^−6 cm^2s^−1.
For the molecule `COc1cc[n+]2c3c1CC[n+]1ccc(OC)c(c1-3)CC2.[Cl-].[Cl-]`, the “Capacity over 100 cycles” value in data set [1] (Table 2) was determined as 0.80. The “Solubility in water (M, at 20°C)” value in data set [2] (Table 2, at 20°C) is listed as “Low”. Moreover, in data set [3] (setting [5]), the “Redox Potential (V vs SHE)” value is −0.80 V vs SHE. Besides, the “Reaction Rate (k°, in cm/s)” value in the data set “Reaction rate (k°)” (Table 2) came to 0.00414 cm/s. In addition, the “Diffusion coefficient (D, in cm^2s^−1)” value in data set [4] (Table 2) is 2.5 × 10^−6 cm^2s^−1.
With `CCOc1cc2c3[n+](c1)CCc1cc(OCC)c[n+](c1-3)CC2.Cl`, the “Capacity over 100 cycles” value in data set [1] (Table 2) is 0.99. Moreover, the solubility in data set [2] (Table 2, at 20°C) was > 1500 mM. For the same molecule, the “Redox Potential (V vs SHE)” value in data set [3] (setting [5]) is given as −0.80 V vs SHE. In “Reaction rate (k°)” (Table 2), the “Reaction Rate (k°, in cm/s)” value was determined as 0.00615 cm/s. The “Diffusion coefficient (D, in cm^2s^−1)” value in data set [4] (Table 2) was 1.41 × 10^−5 cm^2s^−1.
The matching figures for `[Cl-].[Cl-].c1cc2c3[n+](c1)CCCc1ccc[n+](c1-3)CCC2`: 0.98, > 1500 mM, −0.64 V vs SHE, 0.0194 cm/s and 1.63 × 10^−5 cm^2s^−1.
`[Br-].[Br-].c1cc2c3[n+](c1)CC[n+]1cccc(c1-3)CC2` [reference compound]: in data set [1] (Table 3), the “Capacity over 100 cycles” value amounted to 0.98. Also, the solubility in data set [2] (Table 3, at 20° C.) is > 1500 mM. For the same molecule, the “Redox Potential (V vs SHE)” value in data set [3] (setting [6]) is reported as −0.42 V vs SHE. The “Reaction Rate (k°, in cm/s)” value in the data set “Reaction rate (k°)” (Table 3) was found to be 0.00768 cm/s. Also, the “Diffusion coefficient (D, in cm^2s^−1)” value in data set [4] (Table 3) is 9.87 × 10^−6 cm^2s^−1.
